US9943529B2, “Methods for reducing cellular proliferation and treating certain diseases” (BRIGHAM YOUNG UNIVERSITY, priority 2013, dated 2018)

Assays:
K-562 = experiment: NCI screen antiproliferative activity, sulforhodamine B, Leukemia panel; assay type: cell-based, human; settings: five 10-fold dilutions starting from 100 μM
SR = experiment: as above; assay type: cell-based, human; settings: 48 hours, five 10-fold dilutions starting from 100 μM
COLO 205 = experiment: NCI screen antiproliferative activity, sulforhodamine B, Colon Cancer panel; assay type: cell-based, human; settings: 48 hours, five 10-fold dilutions starting from 100 μM
LOX IMVI = experiment: NCI screen antiproliferative activity, sulforhodamine B, Melanoma panel; assay type: cell-based, human; settings: 48 hours, five 10-fold dilutions starting from 100 μM
A549/ATCC = settings: 48 hours, five 10-fold dilutions starting from 100 μM
NCI-H226 = settings: 48 hours, five 10-fold dilutions starting from 100 μM
HCC-2998 = settings: 48 hours, five 10-fold dilutions starting from 100 μM
HCT-116 = settings: 48 hours, five 10-fold dilutions starting from 100 μM
HCT-15 [1] = settings: 48 hours, five 10-fold dilutions starting from 100 μM
SF-268 [2] = settings: 48 hours, five 10-fold dilutions starting from 100 μM
SNB-19 [3] = settings: 48 hours, five 10-fold dilutions starting from 100 μM
U251 [4] = settings: 48 hours, five 10-fold dilutions starting from 100 μM
SK-MEL-28 = settings: 48 hours, five 10-fold dilutions starting from 100 μM
UACC-257 [5] = settings: 48 hours, five 10-fold dilutions starting from 100 μM
OVCAR-5 [6] = settings: 48 hours, five 10-fold dilutions starting from 100 μM
CAKI-1 = settings: 48 hours, five 10-fold dilutions starting from 100 μM
SN12C = settings: 48 hours, five 10-fold dilutions starting from 100 μM
DU-145 = settings: 48 hours, five 10-fold dilutions starting from 100 μM
NCI-ADR-RES = settings: 48 hours, five 10-fold dilutions starting from 100 μM
MDA-MB-435 = settings: 48 hours, five 10-fold dilutions starting from 100 μM
T-47D = settings: 48 hours, five 10-fold dilutions starting from 100 μM
HOP-62 = experiment: cells; settings: Homo sapiens, HOP-62, 48 h
HOP-92 = experiment: cells; settings: Homo sapiens, HOP-92, 48 h
NCI-H322M = experiment: cells; settings: Homo sapiens, 48 h
NCI-H522 = experiment: cells; settings: Homo sapiens, NCI-H522, 48 h
HCT-15 [7] = experiment: cells; settings: Homo sapiens, HCT-15, 48 h
HT29 = experiment: cells; settings: Homo sapiens, HT-29, 48 h
SF-268 [8] = experiment: cells; settings: Homo sapiens, SF-268, 48 h
SNB-19 [9] = experiment: cells; settings: Homo sapiens, SNB-19, 48 h
SNB-75 = experiment: cells; settings: Homo sapiens, SNB-75, 48 h
U251 [10] = experiment: cells; settings: Homo sapiens, U-251, 48 h
M14 = experiment: cells; settings: Homo sapiens, M14, 48 h
UACC-257 [11] = experiment: cells; settings: Homo sapiens, UACC-257, 48 h
IGROV1 = experiment: cells; settings: Homo sapiens, IGROV-1, 48 h
OVCAR-4 = experiment: cells; settings: Homo sapiens, OVCAR-4, 48 h
OVCAR-5 [12] = experiment: cells; settings: Homo sapiens, OVCAR-5, 48 h
OVCAR-8 = experiment: cells; settings: Homo sapiens, OVCAR-8, 48 h
RXF 393 = experiment: cells; settings: Homo sapiens, RXF 393, 48 h
TK-10 = experiment: cells; settings: Homo sapiens, TK-10, 48 h
PC-3 = experiment: cells; settings: Homo sapiens, PC-3, 48 h
MDA-MB-231/ATCC = experiment: cells; settings: Homo sapiens, MDA-MB-231, 48 h
BT-549 = experiment: cells; settings: Homo sapiens, BT-549, 48 h

Compound: CCCCCCCCNCCC[C@@H](C)[C@H]1CC[C@H]2[C@@H]3[C@H](OCCCN)C[C@@H]4C[C@H](OCCCN)CC[C@]4(C)[C@H]3C[C@H](OCCCN)[C@]12C [CSA-13]
- TGI (K-562; 48 hours): 2.47 µM
- GI50 (K-562; Homo sapiens, K562, 48 hours): 1040 nM
- TGI (SR): 2.29 µM
- GI50 (SR; Homo sapiens): 272 nM
- TGI (COLO 205): 3.02 µM
- GI50 (COLO 205; Homo sapiens): 1270 nM
- TGI (LOX IMVI): 1.73 µM
- GI50 (LOX IMVI; Homo sapiens): 378 nM
- TGI (A549/ATCC): 9.33 µM
- TGI (NCI-H226): 12.8 µM
- TGI (HCC-2998): 3.98 µM
- TGI (HCT-116): 2.61 µM
- TGI (HCT-15 [1]): 14.8 µM
- TGI (SF-268 [2]): 3.70 µM
- TGI (SNB-19 [3]): 5.05 µM
- TGI (U251 [4]): 3.05 µM
- TGI (SK-MEL-28): 1.27 µM
- TGI (UACC-257 [5]): 9.00 µM
- TGI (OVCAR-5 [6]): 9.44 µM
- TGI (CAKI-1): 10.6 µM
- TGI (SN12C): 3.55 µM
- TGI (DU-145): 2.35 µM
- TGI (NCI-ADR-RES): 5.33 µM
- TGI (MDA-MB-435): 1.46 µM
- TGI (T-47D): 7.13 µM
- GI50 (HOP-62): 806 nM
- CC50 (HOP-62; read-out: LC50): 9.74 µM
- GI50 (HOP-92): 408 nM
- CC50 (HOP-92; read-out: LC50): > 100 µM
- GI50 (NCI-H322M): 1360 nM
- CC50 (NCI-H322M; read-out: LC50): > 100 µM
- GI50 (NCI-H522): 2590 nM
- CC50 (NCI-H522; read-out: LC50): > 100 µM
- GI50 (HCT-15 [7]): 2630 nM
- CC50 (HCT-15 [7]; read-out: LC50): 63.9 µM
- GI50 (HT29): 1110 nM
- CC50 (HT29; read-out: LC50): 34 µM
- GI50 (SF-268 [8]): 1500 nM
- CC50 (SF-268 [8]; read-out: LC50): 9.14 µM
- GI50 (SNB-19 [9]): 1490 nM
- CC50 (SNB-19 [9]; read-out: LC50): 89.3 µM
- GI50 (SNB-75): 1760 nM
- CC50 (SNB-75; read-out: LC50): 57.2 µM
- GI50 (U251 [10]): 1370 nM
- CC50 (U251 [10]; read-out: LC50): 6.81 µM
- GI50 (M14): 1180 nM
- CC50 (M14; read-out: LC50): 12.6 µM
- GI50 (UACC-257 [11]): 2710 nM
- CC50 (UACC-257 [11]; read-out: LC50): 97.9 µM
- GI50 (IGROV1): 1440 nM
- CC50 (IGROV1; read-out: LC50): 8.67 µM
- GI50 (OVCAR-4): 5.51 µM
- CC50 (OVCAR-4; read-out: LC50): 83 µM
- GI50 (OVCAR-5 [12]): 1550 nM
- CC50 (OVCAR-5 [12]; read-out: LC50): 58.4 µM
- GI50 (OVCAR-8): 1640 nM
- CC50 (OVCAR-8; read-out: LC50): 9.82 µM
- GI50 (RXF 393): 1540 nM
- CC50 (RXF 393; read-out: LC50): > 100 µM
- GI50 (TK-10): 974 nM
- CC50 (TK-10; read-out: LC50): > 100 µM
- GI50 (PC-3): 3.74 µM
- CC50 (PC-3; read-out: LC50): > 100 µM
- GI50 (MDA-MB-231/ATCC): 422 nM
- CC50 (MDA-MB-231/ATCC; read-out: LC50): > 100 µM
- GI50 (BT-549): 1070 nM
- CC50 (BT-549; read-out: LC50): > 100 µM
